From paper PMC4303209, “A novel phosphatidylinositol 3-kinase (PI3K) inhibitor directs a potent FOXO-dependent, p53-independent cell cycle arrest phenotype characterized by the differential induction of a subset of FOXO-regulated genes” (Breast Cancer Research : BCR, 2014)

Test system: MCF-7 breast cancer cells
Assay: Microarray gene expression analysis (Agilent whole human genome 4 x 44K; compound vs DMSO, LIMMA log2 fold change)
Type: cell-based
Conditions: cell cycle genes

Oc1cccc(-c2nc(N3CCOCC3)c3oc4ncccc4c3n2)c1 [PI-103]
STAT5A log2FC (Gene 6776): 0.39
STAT5B log2FC (Gene 6777): 0.11
AURKA log2FC (Gene 6790): -0.02
STK10 log2FC (Gene 6793): -0.32
AURKC log2FC (Gene 6795): 0.0218
SUV39H1 log2FC (Gene 6839): -0.50
TACC1 log2FC (Gene 6867): 0.0342
ADAM17 log2FC (Gene 6868): 0.53
TAF1 log2FC (Gene 6872): 0.15
TAL1 log2FC (Gene 6886): -0.57
TBX3 log2FC (Gene 6926): -0.69
TCF3 log2FC (Gene 6929): 0.0643
DYNLT3 log2FC (Gene 6990): -0.24
DYNLT1 log2FC (Gene 6993): -0.03
TERF1 log2FC (Gene 7013): 0.38
TERF2 log2FC (Gene 7014): -0.16
TFAP4 log2FC (Gene 7023): 0.39
NR2F2 log2FC (Gene 7026): 0.34
TFDP1 log2FC (Gene 7027): -0.56
TFDP2 log2FC (Gene 7029): 0.41
TGFB1 log2FC (Gene 7040): -0.44
THBS1 log2FC (Gene 7057): -0.91
TNF log2FC (Gene 7124): -1.87
TNFAIP3 log2FC (Gene 7128): -0.85
TOP2A log2FC (Gene 7153): 0.91
TOP2B log2FC (Gene 7155): 0.99
TOP3A log2FC (Gene 7156): -0.05
TP53 log2FC (Gene 7157): 0.0569
TP53BP2 log2FC (Gene 7159): 0.35
TPR log2FC (Gene 7175): 0.74
TSC1 log2FC (Gene 7248): 0.42
TSC2 log2FC (Gene 7249): -0.11
TSG101 log2FC (Gene 7251): 0.39
TTK log2FC (Gene 7272): 1.59
TUBG1 log2FC (Gene 7283): -0.33
UBA52 log2FC (Gene 7311): 0.31
UBB log2FC (Gene 7314): 0.0362
UBC log2FC (Gene 7316): 0.33
UBE2B log2FC (Gene 7320): 0.65
UBE2D1 log2FC (Gene 7321): 0.50
UBE2E1 log2FC (Gene 7324): 0.0118
UBE2I log2FC (Gene 7329): -0.30
WEE1 log2FC (Gene 7465): 0.0429
WNT5A log2FC (Gene 7474): 0.13
WNT10B log2FC (Gene 7480): -0.49
WNT9A log2FC (Gene 7483): 0.04
XPC log2FC (Gene 7508): 0.59
XRCC2 log2FC (Gene 7516): -0.60
YWHAG log2FC (Gene 7532): -0.88
ZNF16 log2FC (Gene 7564): 0.34
ZBTB17 log2FC (Gene 7709): 0.30
PTP4A1 log2FC (Gene 7803): -0.61
EVI5 log2FC (Gene 7813): 0.44
ALMS1 log2FC (Gene 7840): 0.65
NR4A3 log2FC (Gene 8013): 0.34
NUP214 log2FC (Gene 8021): -0.41
FOSL1 log2FC (Gene 8061): -2.53
CUL5 log2FC (Gene 8065): -0.23
YEATS4 log2FC (Gene 8089): 1.06
HMGA2 log2FC (Gene 8091): -1.51
CHAF1B log2FC (Gene 8208): -0.0543
CLTCL1 log2FC (Gene 8218): -0.03
USP9X log2FC (Gene 8239): 0.62
SMC1A log2FC (Gene 8243): 0.14
CDC7 log2FC (Gene 8317): 0.32
RAD54L log2FC (Gene 8438): -0.18
CUL4B log2FC (Gene 8450): 0.75
CUL4A log2FC (Gene 8451): 0.38
CUL1 log2FC (Gene 8454): 0.21
KLF11 log2FC (Gene 8462): 1.20
OFD1 log2FC (Gene 8481): 0.89
PKP4 log2FC (Gene 8502): 0.15
GAS7 log2FC (Gene 8522): -0.00153
DGKZ log2FC (Gene 8525): -0.37
CAMK1 log2FC (Gene 8536): -0.0329
CDC14B log2FC (Gene 8555): 0.10
CDK10 log2FC (Gene 8558): 0.17
MADD log2FC (Gene 8567): 0.75
DYNLL1 log2FC (Gene 8655): -1.05
TNKS log2FC (Gene 8658): 0.82
BECN1 log2FC (Gene 8678): 0.35
CDC23 log2FC (Gene 8697): 0.30
CRADD log2FC (Gene 8738): -0.08
CCNK log2FC (Gene 8812): -0.50
BANF1 log2FC (Gene 8815): -0.32
CDK5R1 log2FC (Gene 8851): -0.33
IER3 log2FC (Gene 8870): -2.26
SPHK1 log2FC (Gene 8877): -0.42
CDC16 log2FC (Gene 8881): 0.66
CCNA1 log2FC (Gene 8900): 0.11
TIMELESS log2FC (Gene 8914): 0.20
PHOX2B log2FC (Gene 8929): -0.0327
MBD4 log2FC (Gene 8930): 0.29
BTRC log2FC (Gene 8945): 0.17
WASL log2FC (Gene 8976): 0.10
RNF8 log2FC (Gene 9025): -0.06
PRC1 log2FC (Gene 9055): 0.34
USP2 log2FC (Gene 9099): -0.07
USP8 log2FC (Gene 9101): 0.76
SMC3 log2FC (Gene 9126): 1.35
EXO1 log2FC (Gene 9156): -0.12
ARHGEF2 log2FC (Gene 9181): -0.51
ZW10 log2FC (Gene 9183): 0.27
BUB3 log2FC (Gene 9184): 0.44
NOLC1 log2FC (Gene 9221): -0.67
CCPG1 log2FC (Gene 9236): 1.09
MAPKAPK2 log2FC (Gene 9261): -0.19
PIWIL1 log2FC (Gene 9271): 0.0443
RECQL5 log2FC (Gene 9400): 0.48
ROCK2 log2FC (Gene 9475): 0.20
PSMF1 log2FC (Gene 9491): -0.34
VPS4B log2FC (Gene 9525): 0.64
CLOCK log2FC (Gene 9575): 0.03
MAD2L1BP log2FC (Gene 9587): -0.27
ARHGEF10 log2FC (Gene 9639): 0.19
MDC1 log2FC (Gene 9656): -0.21
CEP135 log2FC (Gene 9662): 0.43
KIAA0430 log2FC (Gene 9665): 0.91
CROCC log2FC (Gene 9696): -0.11
ESPL1 log2FC (Gene 9700): 0.72
CEP57 log2FC (Gene 9702): 1.20
UTP14C log2FC (Gene 9724): 0.24
KNTC1 log2FC (Gene 9735): 0.58
RASSF2 log2FC (Gene 9770): 0.56
CKAP5 log2FC (Gene 9793): 0.44
SFI1 log2FC (Gene 9814): 0.17
RB1CC1 log2FC (Gene 9821): 1.48
MELK log2FC (Gene 9833): 0.25
GINS1 log2FC (Gene 9837): -0.84
MAGI2 log2FC (Gene 9863): 0.33
TLK1 log2FC (Gene 9874): 0.44
POM121 log2FC (Gene 9883): -0.58
KLHL21 log2FC (Gene 9903): 0.49
DCLRE1A log2FC (Gene 9937): 0.44
USP3 log2FC (Gene 9960): 0.29
THOC1 log2FC (Gene 9984): 0.38
DMTF1 log2FC (Gene 9988): 0.44
CASP8AP2 log2FC (Gene 9994): 0.61
PDCD6IP log2FC (Gene 10015): 0.60
BCL2L11 log2FC (Gene 10018): 0.09
CHAF1A log2FC (Gene 10036): -0.38
PARP3 log2FC (Gene 10039): 0.48
TOM1L1 log2FC (Gene 10040): 0.60
SMC4 log2FC (Gene 10051): 0.76
ACTR2 log2FC (Gene 10097): -0.39
RAD50 log2FC (Gene 10111): 0.41
KIF20A log2FC (Gene 10112): 0.59
OPTN log2FC (Gene 10133): 0.73
AKAP9 log2FC (Gene 10142): 1.37
PSME3 log2FC (Gene 10197): -1.22
MPHOSPH9 log2FC (Gene 10198): 0.40
MPHOSPH6 log2FC (Gene 10200): -0.88
MAEA log2FC (Gene 10296): -0.11
PAK4 log2FC (Gene 10298): -0.42
NPM2 log2FC (Gene 10361): -0.11
HMG20B log2FC (Gene 10362): 0.52
CITED2 log2FC (Gene 10370): 2.31
